The values that follow come from publication PMC5430962, “Retro-inverso Urokinase Receptor Antagonists for the Treatment of Metastatic Sarcomas” (Scientific Reports, 2017).

For series [1], the system named is HT1080 cells. The series is described as follows: Matrigel invasion kinetics, xCELLigence RTCA, HT1080. It is filed as cell-based, human. On the procedure: (§1) This assay was performed using E-well plates and the xCELLigence RTCA technology as described. Bottom wells were coated with 20 µg/well matrigel diluted in serum free medium. Matrigel was allowed to polymerize for 1 hr at 37 °C prior to seeding cells (1 × 10^4 cells/well) suspended in growth medium plus/minus RI peptides. Cells that cross matrigel adhere to the bottom of plates causing impedance changes that are proportional to the number of invading cells, and are expressed as a cell index value. Matrigel invasion was monitored for 20 hr. The experiments were performed three times in quadruplicate.

Series [2] concerns osteosarcoma Saos-2 cells. In words: Matrigel invasion kinetics, xCELLigence RTCA, Saos-2. It is filed as cell-based, human. The conditions noted are these: Saos-2, 10 nM, 10% FBS, 20 hr. On the procedure:
as §1

The target in series [3] is T1, FPR1 (Homo sapiens, UniProt P21462).
T1 construct: expressed in transfected cells; host or cells: rat basophilic leukaemia RBL-2H3/ETFR cells (gift of F. Blasi)
T1 sequence (P21462 1-350): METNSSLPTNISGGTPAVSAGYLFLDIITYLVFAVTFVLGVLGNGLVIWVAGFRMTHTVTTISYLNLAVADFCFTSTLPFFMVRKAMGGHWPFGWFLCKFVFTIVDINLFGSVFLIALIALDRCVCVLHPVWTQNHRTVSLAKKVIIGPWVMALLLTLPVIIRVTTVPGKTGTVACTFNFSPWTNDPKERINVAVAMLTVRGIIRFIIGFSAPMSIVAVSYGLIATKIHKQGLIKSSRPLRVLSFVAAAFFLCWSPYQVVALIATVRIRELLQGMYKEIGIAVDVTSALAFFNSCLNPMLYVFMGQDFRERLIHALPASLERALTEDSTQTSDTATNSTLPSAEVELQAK
In words: Ligand binding assay: FITC-fMLF binding to RBL-2H3/ETFR cells. The conditions noted are these: 100 nM unlabeled peptide 60 min at 4 °C, then 10 nM FITC-fMLF 60 min at 4 °C; fluorescence plate reader. On the procedure:
RBL-2H3 cells, RBL-2H3/ETFR cells stably expressing FPR1 (1.5 × 10^6 cells/sample) were pre-incubated with diluents or the indicated unlabeled peptides for 60 min at 4 °C, extensively rinsed with phosphate buffer saline (PBS), exposed to 10 nM FITC-fMLF (Molecular Probes) in PBS for additional 60 min at 4 °C and again rinsed with PBS. Cell-associated fluorescence was quantitated with the fluorescence plate reader Victor 3 (Perkin Elmer) using 485 nm excitation and 535 nm emission filters. The experiments were performed three times in triplicate.

Series [4] concerns HT1080 cells. In words: Cell proliferation, MTS assay. The settings on record: 10 µM in growth medium, replaced every 24 hr. It is filed as cell-based, human. On the procedure:
(§2) Cell proliferation was assessed using the xCELLigence RTCA technology as described. Cells (2 × 10^3/well) were seeded in E-well plates in growth medium and left to growth for 85 hr in the presence or the absence of 10 µM RI-3. For MTS assay, cells seeded on plates in growth medium plus/minus 10 µM RI-3, were allowed to proliferate at 37 °C in 5% CO2 and the absorbance of adherent cells stained with tetrazolium/formazan was assessed with a microplate reader. In both cases, medium with or without RI-3 was replaced every 24 hr. Data are the means ± SD of three independent experiments, performed in triplicate.
A general note: Tetrazolium assays rely on reduction of a dye to a coloured formazan, in cell work by metabolically active cells.

Series [5] concerns cell proliferation. The series is described as follows: Cell proliferation, xCELLigence RTCA. It is filed as cell-based. The conditions noted are these: 10 µM in growth medium, 85 hr, replaced every 24 hr. On the procedure: as §2
Series [6] relates to GFP-Sarc cells on HUVEC monolayer. The series is described as follows: GFP-Sarc cell adhesion onto endothelium. It is filed as cell-based, human. The settings on record: 10 nM. On the procedure:
GFP-tagged Sarc cells were seeded on an endothelial monolayer as previously described. Briefly, sterile round glass coverslips (12 mm in diameter) were coated with 1:8 diluted matrigel (Becton Dickinson). HUVEC (5 × 10^4 cells in 200 μL/well) were seeded onto matrigel and allowed to form a monolayer for ~24 hr at 37 °C, 5% CO2 prior to seeding GFP-Sarc cells (1 × 10^4 cells/well) suspended in complete endothelial medium plus diluents or 10 nM RI-3. At the indicated times, cell-associated fluorescence was assessed by reading cells with the fluorescence plate reader. In a subset of experiments, after 2 hr, cells were stained with rhodamine-conjugated phalloidin and green fluorescent Sarc cells were identified on multiple z-series collected at 0.20 µm intervals using a confocal microscope (Carl Zeiss).

Series [7] concerns Sarc cells crossing HUVEC monolayer. In words: Trans-endothelial migration of Sarc cells, xCELLigence RTCA. It is filed as cell-based, human. The conditions noted are these: 10 nM, EBM-10% FBS, slopes in a 25–35 hr time frame. On the procedure: Trans-endothelial migration assays were performed using the xCELLigence RTCA technology as described. Briefly, HUVECs (1 × 10^4 cells/well) suspended in growth medium, were seeded in E-plates and allowed to grow for ~25 hr, until they form a confluent monolayer, prior to seeding Sarc cells (1 × 10^4 cells/well) in growth medium plus/minus 10 nM RI-3. When HUVECs are challenged with crossing cells, there is a drop in electrical resistance that is monitored in real-time as cell index changes due to the rupture of the endothelial monolayer. The experiment was performed twice in quadruplicate.

[ ]: non-standard residue; d: D form. Aib = CC(C)(N)C(=O)O

As to “Ac-[dY][dR][Aib][dR]-NH2 (SMILES CC(=O)N[C@H](Cc1ccc(O)cc1)C(=O)N[C@H](CCCNC(=N)N)C(=O)NC(C)(C)C(=O)N[C@H](CCCNC(=N)N)C(N)=O) [RI-3]”, the “reduction of matrigel invasion (slope of cell index)” value in series [1] (HT1080, 10 nM, 10% FBS, 20 hr) worked out at 64%; in series [2] it was 24%. Moreover, the IC50 in series [1] (increasing concentrations plus 10% FBS, matrigel invasion 20 hr, xCELLigence, read-out: concentration at which an overall 50% reduction of cell invasion was reached) came out at 10 pM. The “effect on binding of FITC-fMLF to RBL-2H3/ETFR cells” value in series [3] is “prevented binding of FITC-fMLF to RBL-2H3/ETFR cells to a similar extent as compared to fMLF as well as RERF”. For the same substance, in series [4], the “effect on number of metabolically active cells (MTS)” value is “no difference was apparent”. In series [5], the “effect on cell proliferation and doubling times (xCELLigence)” value is given as “no difference was apparent”. Further, the “reduction of cell-associated fluorescence (adhesion to endothelium)” value came out at 72% in series [6] (after 5 min), 50% in series [6] (after 10 min), 20% in series [6] (after 20 min) and 22% in series [6] (after 40 min). In series [7], the “reduction of the capability of Sarc cells to disrupt endothelial monolayers” value came out at 24%.
